Patent publication US20180311342A1, “IMMUNOSTIMULATING AGENT” (AJINOMOTO CO., INC., priority 2017, published 2018)

System: anti-OVA-specific IgG1 and IgG2a subclass antibody production
Experiment: Evaluation test of adjuvant activity (overall conclusion from anti-OVA IgG1 and IgG2a production)
Format: in vivo, BALB/c mice
Settings: compound 0.256 μmol in 5% αCD-added saline with OVA 5 μg, dorsal-subcutaneous
Outline: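 Female BALB/c mice (8 weeks, N=6) immunized dorsal-subcutaneously with OVA 5 μg alone or plus 0.256 μmol compound in 5% α-cyclodextrin saline (Addavax™ as positive control), boosted at 2 weeks. Serum taken 2 weeks after boost; anti-OVA IgG1 and IgG2a quantified by OVA-coated ELISA against standard curves (OD 450 nm).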

[1] = conclusion from IgG1/IgG2a after primary immunization
[2] = conclusion from IgG1/IgG2a after secondary immunization

SMILES | adjuvant activity [1] | adjuvant activity [2]
CCCCCCCCCCCCCCCCNC(=O)N[C@@H](CCCCN)C(=O)NCCCCCCCCCCCC.Cl [SZ214, (2S)-6-amino-N-dodecyl-2-(hexadecylcarbamoylamino)hexanamide hydrochloride] | have an adjuvant activity | have an adjuvant activity
CCCCCCCCCCCCCCCCOC(=O)N[C@@H](CCCNC(=N)N)C(=O)NCCCCCCCC.Cl [SZ215, hexadecyl N-[(1S)-4-guanidino-1-(octylcarbamoyl)butyl]carbamate hydrochloride] | have an adjuvant activity | have an adjuvant activity
